Reference: patent US11672868B2, “Bicyclic peptide ligands specific for MT1-MMP” (priority 2014, dated 2023)
Read-outs that look alike come from different tables or passages of the source. Marks after values point to notes of the source that are not given here. Numbered stars: 1 amine (or outer) side, 2 acyl side, 3 side chain; on linkers, the order of the positions; unused ones are H or OH. Bridge positions count the residues as written; N and C are the ends. Square brackets hold non-standard residues; d marks the D form. Peptide text beside a SMILES is read from it. * marks the point of attachment. X1 = COc1cc2cc(c1Cl)N(C)C(=O)C[C@H](OC(=O)[C@H](C)N(C)C(=O)CCC(C)(C)SSCCCC(=O)*)[C@]1(C)O[C@H]1[C@H](C)[C@@H]1C[C@@](O)(NC(=O)O1)[C@H](OC)/C=C/C=C(\C)C2; X2 = COc1cc2cc(c1Cl)N(C)C(=O)C[C@H](OC(=O)[C@H](C)N(C)C(=O)CCC(C)SSC(C)CCC(=O)*)[C@]1(C)O[C@H]1[C@H](C)[C@@H]1C[C@@](O)(NC(=O)O1)[C@H](OC)/C=C/C=C(\C)C2; 1Nal = N[C@@H](Cc1cccc2ccccc12)C(=O)O; TBMB = c1c(C[*:1])cc(C[*:3])cc1C[*:2]; Tle = CC(C)(C)[C@H](N)C(=O)O; βAla = NCCC(=O)O; Sar = CNCC(=O)O

Key:
[1] = Plasma stability, quantitative LC-MS (Method #2); format: in vitro ADME, mouse; details: for half-life at 4 μM: mouse, quantitative LC-MS, incubation up to 24 hrs, 4 μM BDC, read-out: t1/2 (hrs) (mouse plasma) (converted)
Procedure: (§1) To obtain plasma stability of bicyclic peptides quantitatively, peptide stock solutions (200 μM in DMSO) were mixed with plasma (human or mouse), such that final concentrations were 10 μM. 40 μL samples were taken periodically up to 8 hrs and frozen at −80° C. Prior to LC-MS analysis, samples were defrosted, and mixed with 3 volumes (here, 120 μL) of 1:1 acetonitrile/MeOH water. The milky suspensions were centrifuged for 30 min at 13000 rpm, and peptide-containing supernatants were quantitated for doubly/triply charged species and MS/MS fragments thereof using a Waters Xevo TQ-D instrument, while using a plasma extracted standard curve of the same peptides as a reference. The half-life of degradation in plasma was used to assess the comparative stability of the molecules.

[2] = Plasma stability, quantitative LC-MS (Method #2); format: in vitro ADME, human; details: for half-life at 4 μM: read-out: t1/2 (hrs) (human plasma) (converted)
Procedure: as §1, with “[…] […]” for “To obtain plasma stability of bicyclic peptides quantitatively, peptide stock solutions (200 μM in DMSO) were mixed with plasma (human or mouse), such that final concentrations were 10 μM. 40 μL samples were taken periodically up to 8 hrs and frozen at −80° C.”

[3] = Plasma stability, quantitative LC-MS; format: in vitro ADME; details: rat, incubation up to 24 hrs, 4 μM BDC, read-out: t1/2 (hrs) (rat plasma) (converted)
Procedure: (§2) The four BDCs were assessed for several in vitro parameters such as retention of potency to the human MT1-MMP hemopexin domain, stability in ex vivo mouse, rat and human plasma, and stability to reducing agents such as dithiothreitol.

[4] = Stability to reducing agent dithiothreitol (DTT); format: physicochemical; details: Bicycle Drug Conjugates, quantitative LC-MS
Procedure: as §2

[5] = tested on: human lung squamous cell carcinoma line EBC-1; experiment: Efficacy in EBC-1 xenograft mice; format: in vivo, mouse; details: for efficacy in EBC-1 xenograft / tolerability / body weight: EBC-1 xenograft; for ED50, effective dose to achieve 50% tumour AUC reduction: mouse bearing EBC-1 tumours, ± 95% confidence limit
Procedure: In vivo efficacy of BT17BDC-17, BT17BDC-18, BT17BDC-19 and BT17BDC-20 All BDCs containing the stabilised bicycle core sequence were tested for their efficacies in in vivo mouse xenograft models, using the human lung squamous cell carcinoma line EBC-1.
The area under the curve (AUC) of tumour volume over time and BDC was taken and plotted against the corresponding dose group (FIG. 13).

[6] = Kellogg et al (2011), cited from earlier work; for fold reduction in sensitivity to a reducing agent such as dithiothreitol: in the antibody drug conjugate context, compared to the non-hindered disulphide; for Relative Stability to DTT (ADC): values relate to antibody drug conjugates containing the same disulphide linker
[7] = target: T1, MT1-MMP hemopexin domain (PEX) (Homo sapiens, UniProt P50281); experiment: Competition assay using fluorescence polarisation; format: binding
T1 construct: residues Cys319-Gly511 from the human gene; His6 (N); made in house; host or cells: HEK293 (transient, pEXPR-IBA42 vector)
From the text: (§3) Here, a pre-formed complex of PEX with the fluorescent PEX-binding tracer is titrated with free, non-fluoresceinated bicyclic peptide. Since all 17-69-based peptides are expected to bind at the same site, the titrant will displace the fluorescent tracer from PEX. Dissociation of the complex can be measured quantitatively, and the Kd of the competitor (titrant) to the target protein determined. The advantage of the competition method is that the affinities of non-fluoresceinated bicyclic peptides can be determined accurately and rapidly.
(§4) Subsequently, the non-fluorescent competitor bicyclic peptide (usually just the bicycle core sequence) is titrated, such that it displaces the fluorescent tracer from the target protein. The displacement of the tracer is measured and associated with a drop in fluorescence polarisation. The drop in fluorescence polarisation is proportional to the fraction of target protein bound with the non-fluorescent titrant, and thus is a measure of the affinity of titrant to target protein.
(§5) The raw data is fit to the analytical solution of the cubic equation that describes the equilibria between fluorescent tracer, titrant, and binding protein. The fit requires the value of the affinity of fluorescent tracer to the target protein, which can be determined separately by direct binding FP experiments (see previous section).

[8] = target: MT1-MMP hemopexin domain; experiment: FP competition, species cross-reactivity (dog); format: binding; details: Table 13
From the text: as §3, §4
as §5, with “section). […]” for “section).”

[9] = target: T2, MT1-MMP hemopexin domain (Mus musculus, UniProt P53690); experiment: FP competition, species cross-reactivity (mouse); format: binding; details: Table 13
T2 construct: MT1-MMP hemopexin domain derived from other species
From the text: as §3, §4
as §5, with “section). […]” for “section).”

[10] = human, human plasma, quantitative LC-MS, incubation up to 24 hrs, 4 μM BDC

SMILES | half-life at 4 μM ([1]; plasma) [h] | half-life at 4 μM ([3]; plasma) [h] | Relative Stability to DTT (BDC) [4] | efficacy in EBC-1 xenograft [5] | tolerability / body weight [5] | ED50, effective dose to achieve 50% tumour AUC reduction [5] | fold reduction in sensitivity to a reducing agent such as dithiothreitol [6] [fold] | Relative Stability to DTT (ADC) [6] | Kd [8] [nM] | half-life at 4 μM ([1]; mouse plasma) [h] | half-life at 4 μM [2, 10] [h] | half-life at 4 μM ([3]; rat plasma (ex vivo)) [h] | other results
COc1cc2cc(c1Cl)N(C)C(=O)C[C@H](OC(=O)[C@H](C)N(C)C(=O)CCC(C)(C)SSCCCC(=O)NCCC(=O)N(C)CC(=O)N(C)CC(=O)N(C)CC(=O)N(C)CC(=O)N(C)CC(=O)N(C)CC(=O)N(C)CC(=O)N(C)CC(=O)N(C)CC(=O)N(C)CC(=O)N[C@@H](C)C(=O)N[C@H]1CSCc3cc4cc(c3)CSC[C@H](NC(=O)[C@@H](C)NC(=O)[C@H](Cc3cccc5ccccc35)NC(=O)[C@H](CCC(=O)O)NC(=O)[C@H](CC(N)=O)NC(=O)[C@@H](C)NC1=O)C(=O)N[C@@H](CCC(=O)O)C(=O)N[C@@H](CC(=O)O)C(=O)N[C@@H](Cc1ccccc1)C(=O)N[C@@H](Cc1ccc(O)cc1)C(=O)N[C@@H](CC(=O)O)C(=O)N[C@@H](C(C)(C)C)C(=O)N[C@H](C(N)=O)CSC4)[C@]1(C)O[C@H]1[C@H](C)[C@@H]1C[C@@](O)(NC(=O)O1)[C@H](OC)/C=C/C=C(\C)C2 [BT17BDC-19] ({X1-βAla}-[Sar][Sar][Sar][Sar][Sar][Sar][Sar][Sar][Sar][Sar]AC[dA]NE[1Nal][dA]CEDFYD[Tle]C-NH2; linker 12-18-25 via TBMB) | > 36 | > 36 | 30 | efficacious | well tolerated at efficacious doses | 3.1 ± 1.6^b mg/kg | 14 | 14 |  |  |  |  | half-life at 4 μM ([2]; human, plasma, quantitative LC-MS, incubation up to 24 hrs, 4 μM BDC): > 14 h; t1/2 (hrs) (human plasma) ([2]; quantitative LC-MS, incubation up to 24 hrs, 4 μM BDC): 23.5 ± 4.1 h
CC[C@H](C)[C@@H]1NC(=O)[C@H](CC(=O)O)NC(=O)[C@H](Cc2ccc(O)cc2)NC(=O)[C@H](Cc2ccccc2)NC(=O)[C@H](CC(=O)O)NC(=O)[C@H](CCC(=O)O)NC(=O)[C@@H]2CSCc3cc(cc(c3)CSC[C@H](NC(=O)[C@H](C)NC(=O)CN(C)C(=O)CN(C)C(=O)CN(C)C(=O)CN(C)C(=O)CN(C)C(=O)CN(C)C(=O)CN(C)C(=O)CN(C)C(=O)CN(C)C(=O)CN(C)C(=O)CN)C(=O)N[C@@H](Cc3ccc(O)cc3)C(=O)N[C@@H](CC(N)=O)C(=O)N[C@@H](CCC(=O)O)C(=O)N[C@@H](Cc3ccccc3)C(=O)NCC(=O)N2)CSC[C@@H](C(N)=O)NC1=O [17-69-07-N219, G-Sar10-A-(17-69-07)] (H-G[Sar][Sar][Sar][Sar][Sar][Sar][Sar][Sar][Sar][Sar]ACYNEFGCEDFYDIC-NH2; linker 13-19-26 via TBMB; C-terminus assumed) |  |  |  |  |  |  |  |  | 0.9 | 3.9 ± 0.3 | 30.3 ± 4.7 | 3.7 | Kd ([7]; Table 12, molecules selected for plasma stability assessment, read-out: Kd): 0.82 ± 0.09 nM; Kd ([7]; Table 13, Human/cyno MT1-MMP hemopexin domain, FP competition, read-out: Human/cyno (Kd)): 0.82 nM; Kd ([7]; Table 16, FP competition, footnote e: 17-69-07-N004 as tracer, read-out: Kd (nM) (Hemopexin domain)): 0.82 ± 0.09 nM; Kd ([7]; read-out: Kd, affinity to PEX / MT1-MMP): 0.82 nM; half-life at 10 μM ([1]; ex vivo mouse plasma at 37° C., Method #2 (FIG. 1, FIG. 3A), read-out: half-life of the peptide in mouse plasma (converted)): 6 h; half-life at 10 μM ([2]; human, human plasma, 37° C., sentence prints mouse plasma, read-out: half-life of the peptide in plasma (FIG. 3B, human plasma stability) (converted)): 6 h
C[C@H](NC(=O)CN(C)C(=O)CN(C)C(=O)CN(C)C(=O)CN(C)C(=O)CN(C)C(=O)CN(C)C(=O)CN(C)C(=O)CN(C)C(=O)CN(C)C(=O)CN(C)C(=O)CCN)C(=O)N[C@H]1CSCc2cc3cc(c2)CSC[C@H](NC(=O)[C@@H](C)NC(=O)[C@H](Cc2cccc4ccccc24)NC(=O)[C@H](CCC(=O)O)NC(=O)[C@H](CC(N)=O)NC(=O)[C@@H](C)NC1=O)C(=O)N[C@@H](CCC(=O)O)C(=O)N[C@@H](CC(=O)O)C(=O)N[C@@H](Cc1ccccc1)C(=O)N[C@@H](Cc1ccc(O)cc1)C(=O)N[C@@H](CC(=O)O)C(=O)N[C@@H](C(C)(C)C)C(=O)N[C@H](C(N)=O)CSC3 [17-69-07-N241, bAla-Sar10-A-(17-69-07) D-Ala1 1Nal4 D-Ala5 tBuGly11] (H-[βAla][Sar][Sar][Sar][Sar][Sar][Sar][Sar][Sar][Sar][Sar]AC[dA]NE[1Nal][dA]CEDFYD[Tle]C-NH2; linker 13-19-26 via TBMB; C-terminus assumed) |  |  |  |  |  |  |  |  | 1.4 | > 36 | > 36 | > 36 | Kd [9]: 0.63 nM
COc1cc2cc(c1Cl)N(C)C(=O)C[C@H](OC(=O)[C@H](C)N(C)C(=O)CCC(C)SSC(C)CCC(=O)NCCC(=O)N(C)CC(=O)N(C)CC(=O)N(C)CC(=O)N(C)CC(=O)N(C)CC(=O)N(C)CC(=O)N(C)CC(=O)N(C)CC(=O)N(C)CC(=O)N(C)CC(=O)N[C@@H](C)C(=O)N[C@H]1CSCc3cc4cc(c3)CSC[C@H](NC(=O)[C@@H](C)NC(=O)[C@H](Cc3cccc5ccccc35)NC(=O)[C@H](CCC(=O)O)NC(=O)[C@H](CC(N)=O)NC(=O)[C@@H](C)NC1=O)C(=O)N[C@@H](CCC(=O)O)C(=O)N[C@@H](CC(=O)O)C(=O)N[C@@H](Cc1ccccc1)C(=O)N[C@@H](Cc1ccc(O)cc1)C(=O)N[C@@H](CC(=O)O)C(=O)N[C@@H](C(C)(C)C)C(=O)N[C@H](C(N)=O)CSC4)[C@]1(C)O[C@H]1[C@H](C)[C@@H]1C[C@@](O)(NC(=O)O1)[C@H](OC)/C=C/C=C(\C)C2 (stereo partly drawn) [BT17BDC-20] ({X2-βAla}-[Sar][Sar][Sar][Sar][Sar][Sar][Sar][Sar][Sar][Sar]AC[dA]NE[1Nal][dA]CEDFYD[Tle]C-NH2; linker 12-18-25 via TBMB) | > 36 | 34 ± 4 | 93 | not efficacious | tolerated based on constant weight | 22 ± 13^b mg/kg | 170 | 170 |  |  |  |  | 
